Legend:
[1] = biological target: T1, 5-hydroxytryptamine receptor 2C (Homo sapiens, UniProt P28335); assay: Binding affinity to human 5-HT2C receptor
T1 sequence (P28335 whole entry): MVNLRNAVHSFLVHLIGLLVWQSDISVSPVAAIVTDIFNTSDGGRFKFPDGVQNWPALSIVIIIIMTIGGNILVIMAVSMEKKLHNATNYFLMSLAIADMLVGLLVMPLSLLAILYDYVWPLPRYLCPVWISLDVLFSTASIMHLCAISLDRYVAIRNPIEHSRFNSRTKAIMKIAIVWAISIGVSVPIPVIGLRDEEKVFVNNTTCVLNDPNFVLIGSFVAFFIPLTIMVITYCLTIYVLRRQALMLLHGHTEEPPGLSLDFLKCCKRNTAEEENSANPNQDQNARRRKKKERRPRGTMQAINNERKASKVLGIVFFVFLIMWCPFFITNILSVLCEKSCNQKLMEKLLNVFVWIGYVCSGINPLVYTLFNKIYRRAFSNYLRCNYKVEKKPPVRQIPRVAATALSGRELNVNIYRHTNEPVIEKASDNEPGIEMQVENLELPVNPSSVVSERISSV

[2] = biological target: Beta-2 adrenergic receptor (Rattus norvegicus, UniProt P10608); assay: Binding affinity to rat adrenergic beta2 receptor
[3] = Binding affinity to rat sigma 2 receptor
[4] = biological target: T2, Alpha-2C adrenergic receptor (Homo sapiens, UniProt P18825); assay: Binding affinity to human adrenergic Alpha-2C receptor
T2 sequence (P18825 whole entry): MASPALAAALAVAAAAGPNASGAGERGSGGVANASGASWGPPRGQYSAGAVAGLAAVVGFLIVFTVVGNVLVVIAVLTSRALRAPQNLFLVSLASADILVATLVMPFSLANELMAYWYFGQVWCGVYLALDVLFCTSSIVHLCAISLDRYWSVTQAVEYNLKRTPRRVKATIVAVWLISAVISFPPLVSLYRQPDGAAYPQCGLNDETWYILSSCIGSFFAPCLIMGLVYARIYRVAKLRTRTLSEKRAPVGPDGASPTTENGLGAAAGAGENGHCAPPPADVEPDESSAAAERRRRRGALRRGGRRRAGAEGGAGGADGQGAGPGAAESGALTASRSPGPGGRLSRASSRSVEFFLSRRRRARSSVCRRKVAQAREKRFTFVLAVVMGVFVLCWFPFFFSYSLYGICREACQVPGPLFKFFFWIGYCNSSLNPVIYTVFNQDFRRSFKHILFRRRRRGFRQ

[5] = biological target: Alpha-2A adrenergic receptor (Homo sapiens, UniProt P08913); assay: Binding affinity to human adrenergic alpha2A receptor
Sequence of Alpha-2A adrenergic receptor (P08913 whole entry): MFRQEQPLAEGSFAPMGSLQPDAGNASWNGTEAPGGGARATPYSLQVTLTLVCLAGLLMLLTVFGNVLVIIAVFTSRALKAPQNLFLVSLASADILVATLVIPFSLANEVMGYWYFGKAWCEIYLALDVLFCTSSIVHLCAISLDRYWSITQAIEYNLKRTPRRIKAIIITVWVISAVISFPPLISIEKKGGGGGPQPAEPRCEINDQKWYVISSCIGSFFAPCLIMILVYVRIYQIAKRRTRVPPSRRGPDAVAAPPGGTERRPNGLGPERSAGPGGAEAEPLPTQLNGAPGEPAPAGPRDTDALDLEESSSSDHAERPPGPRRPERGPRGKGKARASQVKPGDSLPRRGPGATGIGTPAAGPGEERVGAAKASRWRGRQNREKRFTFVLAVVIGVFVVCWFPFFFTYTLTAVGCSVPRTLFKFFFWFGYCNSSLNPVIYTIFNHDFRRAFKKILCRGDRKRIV

[6] = biological target: 5-hydroxytryptamine receptor 4 (Homo sapiens, UniProt Q13639); assay: Displacement of [3H]GR113808 from human recombinant 5HT4 receptor expressed in HEK293 cells; assay type: cell-based
Sequence of 5-hydroxytryptamine receptor 4 (Homo sapiens, UniProt Q13639) (Q13639 whole entry): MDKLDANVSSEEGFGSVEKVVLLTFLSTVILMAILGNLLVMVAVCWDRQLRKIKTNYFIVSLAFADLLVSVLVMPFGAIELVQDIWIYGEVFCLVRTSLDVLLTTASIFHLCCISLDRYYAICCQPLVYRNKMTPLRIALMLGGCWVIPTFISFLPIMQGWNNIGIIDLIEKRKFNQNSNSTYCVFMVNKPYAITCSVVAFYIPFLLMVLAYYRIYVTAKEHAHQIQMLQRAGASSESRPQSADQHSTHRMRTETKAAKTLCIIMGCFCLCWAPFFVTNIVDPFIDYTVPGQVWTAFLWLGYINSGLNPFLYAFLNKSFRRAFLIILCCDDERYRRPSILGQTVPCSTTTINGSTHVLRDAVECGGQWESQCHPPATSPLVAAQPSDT

D(1B) dopamine receptor = D(1B) dopamine receptor (Homo sapiens, UniProt P21918); assay: Binding affinity to human dopamine D5 receptor
Sequence of D(1B) dopamine receptor (P21918 whole entry): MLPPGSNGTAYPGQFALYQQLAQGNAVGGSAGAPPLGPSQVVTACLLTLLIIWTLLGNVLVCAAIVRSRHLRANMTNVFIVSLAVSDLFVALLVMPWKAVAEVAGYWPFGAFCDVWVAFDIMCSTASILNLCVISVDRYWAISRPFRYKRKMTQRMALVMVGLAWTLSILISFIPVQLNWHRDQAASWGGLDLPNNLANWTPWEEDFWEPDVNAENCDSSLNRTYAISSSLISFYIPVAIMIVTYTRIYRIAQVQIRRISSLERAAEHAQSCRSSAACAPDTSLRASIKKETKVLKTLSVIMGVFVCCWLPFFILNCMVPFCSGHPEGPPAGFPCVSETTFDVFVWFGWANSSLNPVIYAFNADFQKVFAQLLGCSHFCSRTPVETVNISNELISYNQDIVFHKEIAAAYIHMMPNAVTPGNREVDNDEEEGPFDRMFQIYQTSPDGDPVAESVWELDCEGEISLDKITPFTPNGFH

[7] = biological target: T3, Alpha-1B adrenergic receptor (Homo sapiens, UniProt P35368); assay: Binding affinity to human adrenergic Alpha-1B receptor
T3 sequence (P35368 whole entry): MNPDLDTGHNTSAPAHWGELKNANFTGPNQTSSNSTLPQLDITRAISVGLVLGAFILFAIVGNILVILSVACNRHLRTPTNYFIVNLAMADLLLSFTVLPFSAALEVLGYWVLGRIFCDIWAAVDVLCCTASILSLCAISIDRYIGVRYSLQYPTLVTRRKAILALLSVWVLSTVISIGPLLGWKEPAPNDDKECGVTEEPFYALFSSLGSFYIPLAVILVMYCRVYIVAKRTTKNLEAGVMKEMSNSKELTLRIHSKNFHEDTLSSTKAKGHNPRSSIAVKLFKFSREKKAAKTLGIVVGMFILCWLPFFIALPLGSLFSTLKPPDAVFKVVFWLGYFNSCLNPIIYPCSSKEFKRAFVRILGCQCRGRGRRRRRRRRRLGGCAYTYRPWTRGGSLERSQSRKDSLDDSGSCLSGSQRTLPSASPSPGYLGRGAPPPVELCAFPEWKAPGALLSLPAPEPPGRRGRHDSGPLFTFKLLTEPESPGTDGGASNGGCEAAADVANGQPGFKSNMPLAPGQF

[8] = biological target: GABA-A receptor; agonist GABA site; assay: Binding affinity to human GABAA receptor; assay type: protein-complex assay
[9] = biological target: 5-hydroxytryptamine receptor 4 (Cavia porcellus, UniProt O70528); assay: Displacement of [3H]GR113808 from 5HT4 receptor in guinea pig striatal membranes; assay type: cell membranes, Striatum, Membrane
Sequence of 5-hydroxytryptamine receptor 4 (Cavia porcellus, UniProt O70528) (O70528 whole entry): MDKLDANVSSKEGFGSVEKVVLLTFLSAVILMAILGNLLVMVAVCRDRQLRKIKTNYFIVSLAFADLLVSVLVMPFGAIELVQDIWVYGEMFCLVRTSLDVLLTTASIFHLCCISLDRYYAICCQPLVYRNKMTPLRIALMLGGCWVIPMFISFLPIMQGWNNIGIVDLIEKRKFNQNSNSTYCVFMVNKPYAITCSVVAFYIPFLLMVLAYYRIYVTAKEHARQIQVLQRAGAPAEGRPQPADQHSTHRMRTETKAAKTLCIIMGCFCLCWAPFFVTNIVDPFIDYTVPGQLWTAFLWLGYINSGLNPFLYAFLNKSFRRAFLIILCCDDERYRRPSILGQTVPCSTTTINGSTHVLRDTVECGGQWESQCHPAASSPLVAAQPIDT

[10] = biological target: Muscarinic acetylcholine receptor M4 (Homo sapiens, UniProt P08173); assay: Binding affinity to human muscarinic M4 receptor
Sequence of Muscarinic acetylcholine receptor M4 (P08173 whole entry): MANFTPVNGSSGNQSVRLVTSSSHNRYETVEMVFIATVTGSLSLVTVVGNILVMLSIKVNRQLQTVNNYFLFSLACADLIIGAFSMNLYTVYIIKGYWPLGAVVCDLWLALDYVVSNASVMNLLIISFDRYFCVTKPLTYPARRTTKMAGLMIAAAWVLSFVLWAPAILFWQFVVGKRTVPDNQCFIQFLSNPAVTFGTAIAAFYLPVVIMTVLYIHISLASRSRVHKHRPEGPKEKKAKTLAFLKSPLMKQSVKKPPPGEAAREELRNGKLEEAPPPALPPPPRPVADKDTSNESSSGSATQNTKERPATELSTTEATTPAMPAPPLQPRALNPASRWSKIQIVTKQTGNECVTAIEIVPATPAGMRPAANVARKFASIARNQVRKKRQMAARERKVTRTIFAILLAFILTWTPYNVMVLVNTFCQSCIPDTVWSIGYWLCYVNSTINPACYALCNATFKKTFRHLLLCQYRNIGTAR

[11] = biological target: 5-hydroxytryptamine receptor 1D (Homo sapiens, UniProt P28221); assay: Binding affinity to human 5-HT1D receptor
Sequence of 5-hydroxytryptamine receptor 1D (P28221 whole entry): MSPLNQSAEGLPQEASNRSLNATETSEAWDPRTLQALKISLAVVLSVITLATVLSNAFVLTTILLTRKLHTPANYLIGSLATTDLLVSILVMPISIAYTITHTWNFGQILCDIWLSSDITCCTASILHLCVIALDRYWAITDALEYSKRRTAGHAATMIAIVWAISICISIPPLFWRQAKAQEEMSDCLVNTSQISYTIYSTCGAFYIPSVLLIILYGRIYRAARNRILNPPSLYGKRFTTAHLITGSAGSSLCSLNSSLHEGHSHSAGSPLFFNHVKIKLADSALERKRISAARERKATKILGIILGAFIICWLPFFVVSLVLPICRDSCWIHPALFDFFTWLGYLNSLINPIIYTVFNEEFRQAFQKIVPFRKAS

[12] = biological target: Muscarinic acetylcholine receptor M1 (Homo sapiens, UniProt P11229); assay: Binding affinity to human muscarinic M1 receptor
Sequence of Muscarinic acetylcholine receptor M1 (P11229 whole entry): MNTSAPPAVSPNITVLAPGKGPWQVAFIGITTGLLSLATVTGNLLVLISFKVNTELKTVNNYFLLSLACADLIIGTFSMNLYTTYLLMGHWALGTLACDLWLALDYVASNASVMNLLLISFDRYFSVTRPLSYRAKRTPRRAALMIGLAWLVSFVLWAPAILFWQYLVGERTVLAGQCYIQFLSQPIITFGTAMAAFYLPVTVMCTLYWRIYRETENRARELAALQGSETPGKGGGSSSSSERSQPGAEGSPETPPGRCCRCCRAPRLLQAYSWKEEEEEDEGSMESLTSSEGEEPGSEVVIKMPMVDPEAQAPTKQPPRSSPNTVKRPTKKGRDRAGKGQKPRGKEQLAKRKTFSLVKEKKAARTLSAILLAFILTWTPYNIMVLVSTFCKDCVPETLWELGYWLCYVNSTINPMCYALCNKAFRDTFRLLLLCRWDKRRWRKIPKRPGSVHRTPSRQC

[13] = biological target: 5-hydroxytryptamine receptor 2A (Homo sapiens, UniProt P28223); assay: Binding affinity to human 5-HT2A receptor
[14] = biological target: 5-hydroxytryptamine receptor 1B (Homo sapiens, UniProt P28222); assay: Binding affinity to human 5-HT1B receptor
D(2) dopamine receptor = D(2) dopamine receptor (Rattus norvegicus, UniProt P61169); assay: Binding affinity to rat dopamine D2 receptor
[15] = biological target: 5-hydroxytryptamine receptor 5A (Homo sapiens, UniProt P47898); assay: Binding affinity to human 5-HT5A receptor
Sequence of 5-hydroxytryptamine receptor 5A (P47898 whole entry): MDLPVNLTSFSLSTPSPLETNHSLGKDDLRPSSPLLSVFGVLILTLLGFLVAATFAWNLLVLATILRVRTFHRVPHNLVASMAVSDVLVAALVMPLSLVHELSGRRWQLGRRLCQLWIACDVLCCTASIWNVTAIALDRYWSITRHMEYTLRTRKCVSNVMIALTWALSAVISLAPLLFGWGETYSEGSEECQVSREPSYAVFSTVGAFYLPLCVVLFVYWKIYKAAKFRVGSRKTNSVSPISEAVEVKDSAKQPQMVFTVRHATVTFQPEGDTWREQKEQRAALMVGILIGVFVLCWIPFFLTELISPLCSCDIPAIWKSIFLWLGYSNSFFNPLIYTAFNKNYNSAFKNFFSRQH

[16] = biological target: 5-hydroxytryptamine receptor 6 (Homo sapiens, UniProt P50406); assay: Binding affinity to human 5-HT6 receptor
[17] = biological target: Sigma non-opioid intracellular receptor 1 (Rattus norvegicus, UniProt Q9R0C9); assay: Binding affinity to rat sigma 1 receptor
D(1A) dopamine receptor = D(1A) dopamine receptor (Rattus norvegicus, UniProt P18901); assay: Binding affinity to rat dopamine D1 receptor
Histamine H1 receptor = Histamine H1 receptor (Cavia porcellus, UniProt P31389); assay: Binding affinity to guinea pig histamine H1 receptor
Sequence of Histamine H1 receptor (P31389 whole entry): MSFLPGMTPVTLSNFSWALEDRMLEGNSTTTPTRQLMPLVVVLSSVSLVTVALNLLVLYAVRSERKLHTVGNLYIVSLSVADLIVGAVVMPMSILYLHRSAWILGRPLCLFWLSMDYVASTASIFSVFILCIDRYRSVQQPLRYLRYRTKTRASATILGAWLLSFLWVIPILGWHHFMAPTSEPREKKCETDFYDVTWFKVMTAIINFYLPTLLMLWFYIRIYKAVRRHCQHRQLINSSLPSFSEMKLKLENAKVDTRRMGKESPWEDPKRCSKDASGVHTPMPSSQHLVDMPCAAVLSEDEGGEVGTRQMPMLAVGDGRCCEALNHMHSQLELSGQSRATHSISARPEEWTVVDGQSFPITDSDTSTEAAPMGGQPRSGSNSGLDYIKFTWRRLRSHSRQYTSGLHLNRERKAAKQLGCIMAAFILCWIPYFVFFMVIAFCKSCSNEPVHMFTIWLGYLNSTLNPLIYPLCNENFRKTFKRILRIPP

[18] = biological target: 5-hydroxytryptamine receptor 2B (Homo sapiens, UniProt P41595); assay: Binding affinity to human 5-HT2B receptor
Sequence of 5-hydroxytryptamine receptor 2B (P41595 whole entry): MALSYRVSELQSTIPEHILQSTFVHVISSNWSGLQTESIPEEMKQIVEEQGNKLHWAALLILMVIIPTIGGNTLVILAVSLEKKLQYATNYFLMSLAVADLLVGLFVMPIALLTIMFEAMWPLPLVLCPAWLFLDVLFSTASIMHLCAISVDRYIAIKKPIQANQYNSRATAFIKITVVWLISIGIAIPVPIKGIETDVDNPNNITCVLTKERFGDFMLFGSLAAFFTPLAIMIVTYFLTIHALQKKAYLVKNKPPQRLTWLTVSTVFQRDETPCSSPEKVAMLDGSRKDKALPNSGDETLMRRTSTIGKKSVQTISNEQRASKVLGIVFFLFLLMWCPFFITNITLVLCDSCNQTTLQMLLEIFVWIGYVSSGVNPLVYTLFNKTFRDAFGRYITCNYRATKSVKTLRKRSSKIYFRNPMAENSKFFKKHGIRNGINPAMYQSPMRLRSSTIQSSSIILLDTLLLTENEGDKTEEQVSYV

D(4) dopamine receptor = biological target: T4, D(4) dopamine receptor (Rattus norvegicus, UniProt P30729); assay: Binding affinity to rat dopamine D4 receptor
T4 sequence (P30729 whole entry): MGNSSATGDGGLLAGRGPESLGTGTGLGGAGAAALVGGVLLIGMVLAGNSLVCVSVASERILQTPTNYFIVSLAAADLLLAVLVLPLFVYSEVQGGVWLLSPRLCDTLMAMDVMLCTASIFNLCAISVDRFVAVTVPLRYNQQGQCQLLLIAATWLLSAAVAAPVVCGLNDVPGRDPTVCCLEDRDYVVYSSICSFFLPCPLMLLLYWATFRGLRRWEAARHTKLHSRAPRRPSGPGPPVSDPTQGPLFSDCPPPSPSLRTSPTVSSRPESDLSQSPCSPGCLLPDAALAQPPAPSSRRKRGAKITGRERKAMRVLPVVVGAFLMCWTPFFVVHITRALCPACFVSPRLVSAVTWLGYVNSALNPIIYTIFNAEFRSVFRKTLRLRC

Mu-type opioid receptor = Mu-type opioid receptor (Homo sapiens, UniProt P35372); assay: Binding affinity to human mu opioid receptor
Sequence of Mu-type opioid receptor (P35372 whole entry): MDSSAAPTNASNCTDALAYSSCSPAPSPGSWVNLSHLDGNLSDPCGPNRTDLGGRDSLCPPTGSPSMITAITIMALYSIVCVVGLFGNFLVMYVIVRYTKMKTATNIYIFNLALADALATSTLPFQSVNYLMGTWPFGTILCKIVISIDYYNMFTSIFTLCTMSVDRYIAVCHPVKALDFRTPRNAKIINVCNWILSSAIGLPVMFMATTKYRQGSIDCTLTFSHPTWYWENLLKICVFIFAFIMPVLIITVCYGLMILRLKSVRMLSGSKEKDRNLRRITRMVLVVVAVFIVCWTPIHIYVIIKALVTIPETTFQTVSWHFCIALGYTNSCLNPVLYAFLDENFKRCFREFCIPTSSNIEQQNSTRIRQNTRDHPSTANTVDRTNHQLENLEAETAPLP

SMILES	Ki [1] [nM]	Ki [2] [nM]	Ki [3] [nM]	Ki [4] [nM]	Ki [5] [nM]	Ki [6] [nM]	Ki (D(1B) dopamine receptor) [nM]	Ki [7] [nM]	Ki [8] [nM]	Ki [9] [nM]	Ki [10] [nM]	Ki [11] [nM]	Ki [12] [nM]	Ki [13] [nM]	Ki [14] [nM]	Ki (D(2) dopamine receptor) [nM]	Ki [15] [nM]	Ki [16] [nM]	Ki [17] [nM]	Ki (D(1A) dopamine receptor) [nM]	further results
CCCCN1CCC(COC(=O)c2cc(Cl)c(NC)c3c2OCCO3)CC1	685	> 10000	8	556	2240	2	972	> 10000	> 10000	0.577	760	1300	> 10000	1780	820	220	8590	489	60	2290	Ki (Histamine H1 receptor): 2730 nM; Ki [18]: 66 nM; Ki (D(4) dopamine receptor): 43 nM; Ki (Mu-type opioid receptor): > 10000 nM
CCCCN1CCC(COC(=O)c2ccc(N)c(OC)c2)CC1	> 10000	> 10000	148	989	> 10000	2.4	> 10000	4230	> 10000	0.738	2580	5690	> 10000	> 10000	> 10000	> 10000	> 10000	> 10000	211	> 10000	Ki (Histamine H1 receptor): > 10000 nM; Ki [18]: 2860 nM; Ki (D(4) dopamine receptor): 1270 nM; Ki (Mu-type opioid receptor): > 10000 nM
